Test results from patent US9011817B2, “Compounds and methods of making compounds” (The Board of Trustees of the Leland Stanford Junior …, priority 2009, dated 2015).

Legend:
[1] = test system: CCRF-CEM cells; assay: [18F]F-AraG cell uptake in CCRF-CEM cells (gamma counter); type: cell-based; details: for fold more [18F]F-AraG uptake at 10 μCi as compared to 3 μCi: 5×10^5 CCRF-CEM cells
Protocol: FIG. 2.2 illustrates a graph of 5×10^5 CCRF-CEM cells were labeled with ^18F-AraG (0.6 mCi/ml) for indicated times and doses. Uptake was measured on gamma counter. Bars represent mean of triplicate determinations+/−SEM.
Cells took up ˜2-fold more [^18F]F-AraG when exposed to 10 μCi, at 60 minutes (p=0.008) and at 120 minutes (p=0.001) as compared to 3 μCi. Error bars represent S.E.M.
(§1) CCRF-CEM (acute lymphoblastic T leukemia cell line procured form ATCC) cells were maintained in RPMI 1640 (Cellgro) supplemented with 100 U penicillin/100 ug streptomycin/ml (Cellgro) and 10% fetal bovine serum (Gibco). 5×10^5 CCRF-CEM cells were plated in 12 well dishes. Cells were allowed to settle for one hour then [^18F]F-AraG was added to each well and incubated at 37° C. for indicated times. Primary T cells were isolated from spleens and thymus of out-bred mice. Briefly, tissues were minced and single cell suspensions made in RPMI supplemented as above. Cells were centrifuged at 300×g for 8 minutes at 4° C. and cell pellets were resuspended in phosphate buffered saline (PBS) supplemented with 0.5% bovine serum albumin (BSA). T cells were purified from the suspensions using Miltenyi Pan T antibodies and columns (Miltenyi Biotec) per manufacturer's directions. Purified T cells were either stimulated with 100 U/ml IL-2 (eBiosciences) for 24 or 48 hours, or 50 nM phorbol myristate acetate (PMA) (Fluka) with 1 μg/mL ionomycin (Sigma) for 48 hours or left unstimulated then exposed to 1 μCi of [^18F]F-AraG/10^6 cells for 60 minutes. All cells were then washed in 1×PBS, lysed and radioactivity of each well was determined by gamma counter for [^18F] samples. All results were done in triplicate and are expressed in counts per minute (CPM), standard errors were determined and student T tests performed.

[2] = test system: primary T cells; assay: [18F]F-AraG uptake in purified primary T cells, stimulated or un-stimulated; type: cell-based, mouse; details: for fold more uptake than un-stimulated primary T cells: 1 μCi, 60 minutes
Protocol: Error bars represent mean of triplicate determinations+/−SEM., n=4 p=0.14 and 0.003 by two tailed, paired Student T test respectively.
as §1

[3] = micro PET scans in normal nude mice; type: in vivo; details: initial scans
[4] = cited from earlier work
[5] = test system: CCRF-CEM cells; assay: Competition of cold 2F-AraG with 8-[3H]-AraG uptake in CCRF-CEM cells; type: cell-based; details: increasing amount of 2F-AraG 1-100 μM, 60 or 120 minutes
Protocol: FIG. 2.3a illustrates a graph of 5×10^5 CCRF-CEM cells were incubated, in triplicate, with 1 uCi 8H^3-AraG (1 mCi/ml) and increasing amounts of cold 2F-AraG or DMSO for either 60 or 120 minutes. Percent of control uptake was calculated as: measured cpm of sample/cpm accumulated 1 uCi 8[H^3]-AraG control×100.
We have successfully synthesized a novel ^18F derivative of 2-deoxyguanosine analog, 9-β-D-arabinofuranosylguanine (18F-AraG), to use as a molecular probe (FIG. 2.1). [^18F]AraG cell uptake was evaluated in leukemia cell line, CCRF-CEM, and was compared with [^3H]Arag cell uptake. […] To determine whether cold derivative 2F-AraG competes with the uptake of 8-[^3H]-AraG, we studied the [^3H]-Arag uptakes by CCRF-CEM, MOLT-4 (Leukemia cell line) and Raji (human Burkitt's lymphoma cell line) and competition with cold 2F-AraG (FIGS. 2.3a and 2.3b). […] Competition assays indicate that cold derivative 2F-Arag competes with the uptake of the 8-[^3H]-AraG, indicating similar uptake pathways.

## Nc1nc2c(ncn2[C@@H]2O[C@H](CO)[C@@H](O)[C@@H]2[18F])c(=O)[nH]1 [[^18F]F-AraG, 2′-Deoxy-2′-[^18F]fluoro-9-β-D-arabinofuranosylguanine]
[1]; 60 minutes, p=0.008
  fold more [18F]F-AraG uptake at 10 μCi as compared to 3 μCi: ~2 fold
[1]; 120 minutes, p=0.001
  fold more [18F]F-AraG uptake at 10 μCi as compared to 3 μCi: ~2 fold
[1]; CCRF-CEM cells
  dose dependence of uptake: dose dependent
[1]; CCRF-CEM cells, 60 or 120 minutes
  time course of uptake: majority of the [^18F]F-AraG is taken up by cells within the first hour
[1]; CCRF-CEM leukemia cell line, unactivated
  cell uptake (qualitative): take up
[1]; unactivated CCRF-CEM cells, time not stated
  fold increase in [18F]F-AraG uptake, cells exposed to 10 μCi compared to 3 μCi: 2 fold
[2]; activated primary thymocytes / primary T cells
  cell uptake (qualitative): take up [^18F]F-AraG to an appreciable level
[2]; stimulated with 50 nM PMA and 1 μg/mL ionomycin, p=0.003
  fold more uptake than un-stimulated primary T cells: 4.7 fold
[2]; stimulated with 100 U/mL interleukin 2, p=0.14
  fold more uptake than un-stimulated primary T cells: 1.4 fold
[3]
  tissue uptake in micro PET: taken up within the thymus and lymph nodes

## Nc1nc2c(ncn2[C@@H]2O[C@H](CO)[C@@H](O)[C@@H]2O)c(=O)[nH]1 [AraG, 9-β-D-arabinofuranosylguanine]
[4]
  therapeutic serum levels at which neurotoxic side effects are induced in some patients: ~150 µM

## Nc1nc2c(ncn2[C@@H]2O[C@H](CO)[C@@H](O)[C@@H]2F)c(=O)[nH]1 [2F-AraG, 2′-Deoxy-2′-fluoro-9-β-D-arabinofuranosylguanine]
[5]
  effect on [3H]-AraG uptake: decrease of the [^3H]-AraG uptake
